In ChEMBL document CHEMBL1201862, “PubChem BioAssay data set” (2004):
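A five-concentration, 48-hour dose response in 96-well plates underlies each endpoint, interpolated linearly between surrounding concentrations. GI50 is the concentration that inhibits growth by half.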 The source made the active and inactive calls. No stated cut-off is given here; in the data, active = GI50 up to about 1.1 µM and inactive = higher.

Key:
Assay in all cases: DTP human tumour cell line panel, 48 h
NCI-H23 = test system: NCI-H23
SN12C = test system: SN12C
OVCAR-4 = test system: OVCAR-4
SNB-19 = test system: SNB-19
OVCAR-8 = test system: OVCAR-8
UACC-62 = test system: UACC-62
Malme-3M = test system: Malme-3M
RXF 393 = test system: RXF 393
DU-145 = test system: DU-145
MDA-N = test system: MDA-N
PC-3 = test system: PC-3
U-251 = test system: U-251
HCT-116 = test system: HCT-116
CCRF-CEM = test system: CCRF-CEM
SF-295 = test system: SF-295
SF-539 = test system: SF-539
SK-OV-3 = test system: SK-OV-3
MDA-MB-435 = test system: MDA-MB-435
MCF7 = test system: MCF7
NCI-H460 = test system: NCI-H460

Measured: GI50

CC(=O)O[C@H]1CC[C@@]2(C)C(=CC[C@@H]3[C@@H]2CC[C@](C)(c2nnc(C)o2)[C@H]3CC#N)C1
inactive: NCI-H23 > 100 µM | SN12C > 100 µM | OVCAR-4 > 100 µM | SNB-19 > 100 µM | OVCAR-8 > 100 µM | UACC-62 > 100 µM | Malme-3M > 100 µM | RXF 393 > 100 µM | DU-145 > 100 µM | MDA-N > 100 µM | PC-3 > 100 µM | U-251 > 100 µM | HCT-116 > 100 µM | CCRF-CEM > 100 µM | SF-295 > 100 µM | SF-539 > 100 µM | SK-OV-3 > 100 µM | MDA-MB-435 > 100 µM | MCF7 > 100 µM

O=C1C2=Cc3ccccc3OC2(O)Oc2cc(O)cc(O)c21 (stereo not given)
inactive: NCI-H23 59.2 µM | SN12C > 100 µM | OVCAR-4 92.3 µM | NCI-H460 41.5 µM | OVCAR-8 > 100 µM | UACC-62 71.8 µM | Malme-3M > 100 µM | RXF 393 > 100 µM | DU-145 > 100 µM | MDA-N > 100 µM | PC-3 > 100 µM | U-251 > 100 µM | HCT-116 > 100 µM | CCRF-CEM 57.4 µM | SF-295 > 100 µM | SF-539 > 100 µM | SK-OV-3 > 100 µM | MDA-MB-435 > 100 µM | MCF7 > 100 µM

Nc1ccc(-c2nnc(-c3c(Cl)c(Cl)c(Cl)c(Cl)c3-c3nc4cc(C(=O)c5ccccc5)ccc4[nH]3)o2)cc1
inactive: NCI-H23 33 µM | SN12C 16.8 µM | OVCAR-4 24.5 µM | SNB-19 27.2 µM | OVCAR-8 43.8 µM | Malme-3M 22.8 µM | RXF 393 10.9 µM | DU-145 24.8 µM | MDA-N 4.68 µM | PC-3 16.6 µM | U-251 18.1 µM | HCT-116 20.6 µM | CCRF-CEM 14.8 µM | SF-295 19.5 µM | SF-539 14.2 µM | SK-OV-3 26.1 µM | MDA-MB-435 4.95 µM | MCF7 16 µM

O=C(/C=C/C=C/c1ccccc1)CCc1ccccc1
inactive: NCI-H23 63.7 µM | SN12C > 100 µM | OVCAR-4 70.3 µM | SNB-19 62.1 µM | OVCAR-8 73.8 µM | UACC-62 > 100 µM | Malme-3M > 100 µM | RXF 393 > 100 µM | DU-145 > 100 µM | MDA-N > 100 µM | PC-3 83 µM | U-251 61 µM | HCT-116 40.7 µM | CCRF-CEM 35.2 µM | SF-295 > 100 µM | SF-539 > 100 µM | SK-OV-3 > 100 µM | MDA-MB-435 72.6 µM | MCF7 > 100 µM
